Experimental data taken from ChEMBL document CHEMBL3044753, “Polyamines May Modulate Both G Protein-Coupled Receptors and G Proteins” (Med Chem Res, 2004).
Active and inactive are the calls of the source. No cut-off for these calls is given here.

How the values were obtained:
Right cardiac atrium [1] = test: Negative ionotropic activity in electrically-paced Cavia porcellus (guinea pig) right atrium measured after 60 min by isometric transducer analysis in presence of dihydroergocristine; type: functional, tissue-based
Left cardiac atrium [2] = test: Negative ionotropic activity in electrically-paced Cavia porcellus (guinea pig) left atrium measured after 60 min by isometric transducer analysis in presence of bupranolol; type: functional, tissue-based
Right cardiac atrium [3] = test: Negative ionotropic activity in electrically-paced Cavia porcellus (guinea pig) right atrium measured after 60 min by isometric transducer analysis in presence of 4-DAMP mustard; type: functional, tissue-based
Right cardiac atrium [4] = test: Negative ionotropic activity in electrically-paced Cavia porcellus (guinea pig) right atrium measured after 60 min by isometric transducer analysis in presence of ANR 83; type: functional, tissue-based
Left cardiac atrium [5] = test: Negative […] activity in electrically-paced Cavia porcellus (guinea pig) left atrium measured immediately by isometric transducer analysis in presence of atropine; type: functional, tissue-based
Left cardiac atrium [6] = test: Negative […] activity in electrically-paced Cavia porcellus (guinea pig) left atrium measured immediately by isometric transducer analysis in presence of pimozide; type: functional, tissue-based
Left cardiac atrium [7] = test: Negative ionotropic activity in electrically-paced Cavia porcellus (guinea pig) left atrium measured after 60 min by isometric transducer analysis in presence of thioperamide; type: functional, tissue-based
[8] = target: T1, Muscarinic acetylcholine receptor M2 (Homo sapiens) (UniProt P08172); test: Allosteric modulation of Homo sapiens (human) recombinant muscarinic M2 receptor expressed in CHO cells assessed as inhibition of carbachol-induced [35S]GTPgammaS binding; type: functional, cell-based
T1 sequence (whole entry): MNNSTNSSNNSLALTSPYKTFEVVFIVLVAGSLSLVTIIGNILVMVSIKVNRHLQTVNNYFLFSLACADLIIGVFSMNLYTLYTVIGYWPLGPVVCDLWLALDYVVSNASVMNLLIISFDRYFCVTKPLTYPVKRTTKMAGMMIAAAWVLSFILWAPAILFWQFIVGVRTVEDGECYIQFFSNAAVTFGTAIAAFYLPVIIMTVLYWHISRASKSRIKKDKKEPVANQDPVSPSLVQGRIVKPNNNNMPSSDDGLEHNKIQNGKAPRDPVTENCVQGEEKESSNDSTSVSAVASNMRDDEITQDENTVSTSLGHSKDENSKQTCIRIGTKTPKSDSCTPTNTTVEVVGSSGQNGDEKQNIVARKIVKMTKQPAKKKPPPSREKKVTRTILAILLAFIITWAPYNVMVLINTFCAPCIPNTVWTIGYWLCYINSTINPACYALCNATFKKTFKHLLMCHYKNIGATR

Right cardiac atrium [9] = test: Negative […] activity in electrically-paced Cavia porcellus (guinea pig) right atrium measured immediately by isometric transducer analysis in presence of benzalkonium; type: functional, tissue-based
Right cardiac atrium [10] = test: Negative […] activity in electrically-paced Cavia porcellus (guinea pig) right atrium measured after 60 min by isometric transducer analysis in presence of thioperamide; type: functional, tissue-based
Left cardiac atrium [11] = test: Negative ionotropic activity in electrically-paced Cavia porcellus (guinea pig) left atrium measured after 60 min by isometric transducer analysis in absence of benextramine/4-DAMP mustard; type: functional, tissue-based; conditions: 1 h
Right cardiac atrium [12] = test: Negative ionotropic activity in electrically-paced Cavia porcellus (guinea pig) right atrium measured after 60 min by isometric transducer analysis in presence of prazosin; type: functional, tissue-based
Right cardiac atrium [13] = test: Negative […] activity in electrically-paced Cavia porcellus (guinea pig) right atrium assessed as effect on force measured after 60 min by isometric transducer analysis in presence of benextramine/4-DAMP mustard relative to N-dodecyl lysine amide; type: functional
Right cardiac atrium [14] = test: Negative ionotropic activity in electrically-paced Cavia porcellus (guinea pig) right atrium measured immediately by isometric transducer analysis in presence of thioperamide; type: functional, tissue-based
Right cardiac atrium [15] = test: Negative ionotropic activity in electrically-paced Cavia porcellus (guinea pig) right atrium assessed as effect on force measured immediately by isometric transducer analysis in presence of benzalkonium/prazosin; type: functional, tissue-based
Left cardiac atrium [16] = test: Negative ionotropic activity in electrically-paced Cavia porcellus (guinea pig) left atrium measured immediately by isometric transducer analysis in absence of benzalkonium/prazosin relative to arecaidine propargyl ester; type: functional
Right cardiac atrium [17] = test: Negative ionotropic activity in electrically-paced Cavia porcellus (guinea pig) right atrium measured immediately by isometric transducer analysis in presence of dihydroergocristine; type: functional, tissue-based
[18] = target: T1, Muscarinic acetylcholine receptor M2 (Homo sapiens); test: Allosteric modulation of Homo sapiens (human) recombinant muscarinic M2 receptor expressed in CHO cells assessed as inhibition of N-[3H]methylscopalamine dissociation incubated at 1 hr post N-[3H]methylscopalamine addition measured after 5 min by filter binding assay; type: cell-based
Right cardiac atrium [19] = test: Negative ionotropic activity in electrically-paced Cavia porcellus (guinea pig) right atrium measured immediately by isometric transducer analysis in presence of methoctramine; type: functional, tissue-based
Left cardiac atrium [20] = test: Negative ionotropic activity in electrically-paced Cavia porcellus (guinea pig) left atrium measured after 60 min by isometric transducer analysis in presence of AM 630; type: functional, tissue-based
Right cardiac atrium [21] = test: Negative […] activity in electrically-paced Cavia porcellus (guinea pig) right atrium measured immediately by isometric transducer analysis in presence of atropine; type: functional, tissue-based
Left cardiac atrium [22] = test: Reversible negative ionotropic activity in electrically-paced Cavia porcellus (guinea pig) left atrium incubated for few seconds followed by compound washout measured after 3 hr by isometric transducer analysis in absence of benzalkonium/prazosin; type: functional, tissue-based
Right cardiac atrium [23] = test: Negative […] activity in electrically-paced Cavia porcellus (guinea pig) right atrium assessed as effect on rate measured immediately by isometric transducer analysis in presence of benzalkonium/prazosin; type: functional, tissue-based
Right cardiac atrium [24] = test: Negative […] activity in electrically-paced Cavia porcellus (guinea pig) right atrium measured immediately by isometric transducer analysis in presence of benextramine; type: functional, tissue-based
Left cardiac atrium [25] = test: Negative ionotropic activity in electrically-paced Cavia porcellus (guinea pig) left atrium measured immediately by isometric transducer analysis in presence of AM 630; type: functional, tissue-based
Right cardiac atrium [26] = test: Negative […] activity in electrically-paced Cavia porcellus (guinea pig) right atrium assessed as effect on force measured after 60 min by isometric transducer analysis in presence of benextramine/4-DAMP mustard; type: functional, tissue-based; conditions: 1 h
Left cardiac atrium [27] = test: Negative ionotropic activity in electrically-paced Cavia porcellus (guinea pig) left atrium measured immediately by isometric transducer analysis in presence of AM 251; type: functional, tissue-based
Left cardiac atrium [28] = test: Negative […] activity in electrically-paced Cavia porcellus (guinea pig) left atrium measured immediately by isometric transducer analysis in presence of methoctramine; type: functional, tissue-based
Right cardiac atrium [29] = test: Negative […] activity in electrically-paced Cavia porcellus (guinea pig) right atrium measured immediately by isometric transducer analysis in presence of 4-DAMP mustard; type: functional, tissue-based
Left cardiac atrium [30] = test: Negative ionotropic activity in electrically-paced Cavia porcellus (guinea pig) left atrium measured after 60 min by isometric transducer analysis in presence of AM 251; type: functional, tissue-based
Left cardiac atrium [31] = test: Negative ionotropic activity in electrically-paced Cavia porcellus (guinea pig) left atrium measured after 60 min by isometric transducer analysis in presence of ANR 83; type: functional, tissue-based
Right cardiac atrium [32] = test: Negative […] activity in electrically-paced Cavia porcellus (guinea pig) right atrium measured immediately by isometric transducer analysis in presence of AM 251; type: functional, tissue-based
Right cardiac atrium [33] = test: Negative ionotropic activity in electrically-paced Cavia porcellus (guinea pig) right atrium assessed as effect on force measured immediately by isometric transducer analysis in presence of benzalkonium/prazosin relative to arecaidine propargyl ester; type: functional
[34] = target: T1, Muscarinic acetylcholine receptor M2 (Homo sapiens); test: Binding affinity to Homo sapiens (human) recombinant muscarinic M2 receptor expressed in CHO cells assessed as [35S]GTPgammaS binding; type: functional, cell-based
Right cardiac atrium [35] = test: Negative […] activity in electrically-paced Cavia porcellus (guinea pig) right atrium assessed as effect on force measured after 60 min by isometric transducer analysis in absence of benextramine/4-DAMP mustard relative to N-dodecyl lysine amide; type: functional

| SMILES | Activity (Right cardiac atrium [1]) | Activity (Left cardiac atrium [2]) | Activity (Right cardiac atrium [3]) | Activity (Right cardiac atrium [4]) | Activity (Left cardiac atrium [7]) | Activity [8] | Activity (Right cardiac atrium [10]) | EC50 (Left cardiac atrium [11]) [nM] | Activity (Right cardiac atrium [12]) | Efficacy (Right cardiac atrium [13]) [%] | INH [18] [µM] | Activity (Left cardiac atrium [20]) | EC50 (Right cardiac atrium [26]) [nM] | Activity (Left cardiac atrium [30]) | Activity (Left cardiac atrium [31]) | Activity [34] | Efficacy (Right cardiac atrium [35]) [%] | further results |
| --- | --- | --- | --- | --- | --- | --- | --- | --- | --- | --- | --- | --- | --- | --- | --- | --- | --- | --- |
| COc1ccccc1CN1CCC(C2CCN(C(=O)CCCCCCC(=O)N3CCC(C4CCN(Cc5ccccc5OC)CC4)CC3)CC2)CC1 [PIPERTRAMINE AMIDE] | Active | Active | Active | Active | Active | Active | Active | 3.09 | Active | 82 | 1.71 | Active | 3.16 | Active | Active | inactive | 78 | Activity (Left cardiac atrium [5]): inactive; Activity (Left cardiac atrium [6]): Active; Activity (Right cardiac atrium [9]): Active; Activity (Right cardiac atrium [14]): Active; EC50 (Right cardiac atrium [15]): 2.29 nM; Efficacy (Left cardiac atrium [16]): 58%; Activity (Right cardiac atrium [17]): Active; Activity (Right cardiac atrium [19]): inactive; Activity (Right cardiac atrium [21]): inactive; Activity (Left cardiac atrium [22]): Active; EC50 (Right cardiac atrium [23]): 1.51 nM; Activity (Right cardiac atrium [24]): Active; Activity (Left cardiac atrium [25]): Active; Activity (Left cardiac atrium [27]): Active; Activity (Left cardiac atrium [28]): inactive; Activity (Right cardiac atrium [29]): inactive; Activity (Right cardiac atrium [32]): Active; Efficacy (Right cardiac atrium [33]): 81% |
| COc1ccccc1CN1CCC(C2CCN(CCCCCCCCN3CCC(C4CCN(Cc5ccccc5OC)CC4)CC3)CC2)CC1 [PIPERTRAMINE] | Active | Active | Active | Active | Active | Active | Active | 0.2 | Active | 72 | 1.57 | Active | 0.263 | Active | Active | inactive | 71 |  |
